Like-named read-outs stand apart in the source and are kept apart here.
Experiment: Single ascending oral dose study in healthy volunteers: plasma pharmacokinetics
Type: in vivo, human
Conditions: human, plasma, oral; for concentration at 6 h: 6 Hours Postdose; for concentration at 12 h: 12 Hours Postdose; for concentration at 24 h: 24 Hours Postdose; for concentration at 48 h: 48 Hours Postdose; for concentration at 72 h: 72 Hours Postdose
Description: This example describes the first-in-human study of Compound I. Based on its mechanism of action, Compound I may offer a targeted therapy for patients with DCM caused by genetic or nongenetic mechanisms. The study was a randomized, double-blind, placebo-controlled, sequential group, single-ascending (oral) close study in healthy subjects aged 18-55 years. Eight dosing cohorts, each comprising eight healthy subjects, were enrolled. Within each cohort, subjects were randomized 6:2 to Compound I:placebo.
Subjects were resident at the clinical site for up to 5 days and 4 nights, from Day −1 (the day before dosing) to Day 4, and received a single dose of Compound I or placebo on Day 1. ECG telemetry was initiated 1 hour preclose and continued through 48 hours postclose (Day 3). Any subject with a preclose resting HR≥80 beats per minute was considered ineligible and not treated. […] Subjects returned for a safety follow-up visit 7 days (±1 day) after dosing.
All randomized study subjects received either Compound I or matching placebo as a single oral dose after a fasting period of at least 6 hours. Compound I drug substance is a crystalline, free-base, synthetic molecule with a molecular weight of 435.4 g/mol.
Compound I was provided as a powder for oral suspension. Placebo was provided as calcium carbonate powder. Both treatments were closed orally as a suspension. The suspension was made using Ora-Plus® suspending vehicle (Perrigo) and a cherry syrup flavoring vehicle (Humco), mixed 50% to 50%. The suspension was followed by approximately 100 mL water. The suspension was made up within 14 days from the time in which it was closed which was consistent with the stability data on the suspension. The suspension was made up so the volume administered to the subjects who received Compound I was the same at 20 mL.
Each subject received a close according to the cohort in which they were enrolled. Cohorts were enrolled sequentially, with each cohort receiving an escalated dose of Compound I. The closes administered were 3 mg, 10 mg, 25 mg, 50 mg, 100 mg, 175 mg, 350 mg, and 525 mg, respectively.
The concentrations of Compound I in human plasma and urine were quantitated by high performance liquid chromatography with tandem mass spectrometric detection (LC MS/MS) (Biological sample analysis study report Alturas AD17-726). Plasma samples were extracted by protein precipitation with acetonitrile containing internal standard MYK-5654. The calibration curves were linear over concentration range of 0.500 to 1000 ng/mL with a lower limit of quantification (LLOQ) of 0.500 ng/mL.
The PK Population included all subjects who received Compound I. Blood samples were collected for PK assessments. The actual timing of the samples may have been modified and/or up to an additional 2 samples may have been requested by the SRC after review of the data from previous cohorts. It was important that PK sampling occurred as closely as possible to the scheduled time (±10%). Both blood and urine samples were used for PK assessments.
In addition, for subjects who received placebo, a single plasma sample near the predicted tmax of Compound I was evaluated to confirm the lack of circulating Compound I. Plasma concentration data for Compound I was summarized using descriptive statistics, including mean, standard deviation (SD), median, minimum, and maximum values, and percent coefficient of variation. Other PK parameters included (but were not limited to) Cmax, tmax, AUC, t1/2, and MRT. Additionally, the apparent terminal-phase terminal half-life was calculated. The close proportionality of AUC and Cmax was explored.

[1] = 50 mg, 50 mg, read-out: Plasma concentration, Geometric Mean
[2] = 50 mg, 50 mg, read-out: Plasma concentration, Mean
[3] = 50 mg, 50 mg, read-out: Plasma concentration, Median

Q: For `Cn1cc(S(=O)(=O)[C@@](C)(F)C2CCN(C(=O)Nc3ccon3)CC2)c(C(F)F)n1` [Compound I, (R)-4-(1-((3-(difluoromethyl)-1-methyl-1H-pyrazol-4-yl)sulfonyl)-1-fluoroethyl)-N-(isoxazol-3-yl)piperidine-1-carboxamide], which AUC(0-inf) (25 mg, read-out: AUC0-∞, Mean) is on record?
A: The AUC(0-inf) was 7290 ng·h/mL.

Q: What about the AUC(0-inf) (25 mg, read-out: AUC0-∞, Median) of the same molecule?
A: The AUC(0-inf) was 7570 ng·h/mL.

Q: And the Cmax (25 mg, read-out: Cmax, Geometric Mean)?
A: The Cmax was 298 ng/mL.

Q: What about the Cmax (25 mg, read-out: Cmax, Mean) of the same molecule?
A: The Cmax was 304 ng/mL.

Q: And the Cmax (25 mg, read-out: Cmax, Median)?
A: Its Cmax is 313 ng/mL.

Q: What about the half-life (25 mg, read-out: Half-Life Lambda Z, Geometric Mean (converted)) of the same molecule?
A: The half-life was 13.1 h.

Q: What about the half-life (25 mg, read-out: Half-Life Lambda Z, Mean (converted)) of the same molecule?
A: The half-life was 13.3 h.

Q: What about the half-life (25 mg, read-out: Half-Life Lambda Z, Median (converted)) of the same molecule?
A: Its half-life is 12.7 h.

Q: And the MRT (25 mg, read-out: Mean Residence Time, Geometric Mean)?
A: The MRT was 20.6 h.

Q: And the MRT (25 mg, read-out: Mean Residence Time, Mean)?
A: The MRT was 20.8 h.

Q: What about the MRT (25 mg, read-out: Mean Residence Time, Median) of the same molecule?
A: The MRT was 20.1 h.

Q: And the Tmax (25 mg, read-out: Tmax, Geometric Mean)?
A: The Tmax was 4.64 h.

Q: What about the Tmax (25 mg, read-out: Tmax, Mean) of the same molecule?
A: The Tmax was 4.67 h.

Q: And the Tmax (25 mg, read-out: Tmax, Median)?
A: The Tmax was 5 h.

Q: And the Vd/F (25 mg, read-out: Vz/F, Geometric Mean)?
A: The Vd/F was 67.3 L.

Q: What about the Vd/F (25 mg, read-out: Vz/F, Mean) of the same molecule?
A: Its Vd/F is 68.6 L.

Q: What about the Vd/F (25 mg, read-out: Vz/F, Median) of the same molecule?
A: Its Vd/F is 66.5 L.

Q: And the concentration at 6 h [1]?
A: The concentration at 6 h was 424 ng/mL.

Q: What about the concentration at 6 h [2] of the same molecule?
A: Its concentration at 6 h is 431 ng/mL.

Q: And the concentration at 6 h [3]?
A: Its concentration at 6 h is 420 ng/mL.

Q: What about the concentration at 12 h [1] of the same molecule?
A: The concentration at 12 h was 317 ng/mL.

Q: What about the concentration at 12 h [2] of the same molecule?
A: The concentration at 12 h was 322 ng/mL.

Q: What about the concentration at 12 h [3] of the same molecule?
A: Its concentration at 12 h is 297 ng/mL.

Q: What about the concentration at 24 h [1] of the same molecule?
A: The concentration at 24 h was 175 ng/mL.

Q: And the concentration at 24 h [2]?
A: The concentration at 24 h was 178 ng/mL.

Q: What about the concentration at 24 h [3] of the same molecule?
A: The concentration at 24 h was 174 ng/mL.

Q: What about the concentration at 48 h [1] of the same molecule?
A: The concentration at 48 h was 49.5 ng/mL.

Q: And the concentration at 48 h [2]?
A: Its concentration at 48 h is 51.9 ng/mL.

Q: What about the concentration at 48 h [3] of the same molecule?
A: The concentration at 48 h was 57.4 ng/mL.

Q: What about the concentration at 72 h [1] of the same molecule?
A: Its concentration at 72 h is 13.5 ng/mL.

Q: And the concentration at 72 h [2]?
A: The concentration at 72 h was 15.2 ng/mL.

Q: And the concentration at 72 h [3]?
A: Its concentration at 72 h is 18.8 ng/mL.

Q: What about the AUC(0-t) (50 mg, read-out: AUC0-24, Geometric Mean) of the same molecule?
A: The AUC(0-t) was 7210 ng·h/mL.

Q: And the AUC(0-t) (50 mg, read-out: AUC0-24, Mean)?
A: The AUC(0-t) was 7300 ng·h/mL.

Q: And the AUC(0-t) (50 mg, read-out: AUC0-24, Median)?
A: The AUC(0-t) was 6730 ng·h/mL.

Q: What about the AUC(0-t) (50 mg, read-out: AUC0-48, Geometric Mean) of the same molecule?
A: Its AUC(0-t) is 9930 ng·h/mL.

Q: What about the AUC(0-t) (50 mg, read-out: AUC0-48, Mean) of the same molecule?
A: Its AUC(0-t) is 10100 ng·h/mL.

Q: What about the AUC(0-t) (50 mg, read-out: AUC0-48, Median) of the same molecule?
A: The AUC(0-t) was 9500 ng·h/mL.

Q: And the AUC(0-t) (50 mg, read-out: AUC0-last, Geometric Mean)?
A: The AUC(0-t) was 11100 ng·h/mL.

Q: What about the AUC(0-t) (50 mg, read-out: AUC0-last, Mean) of the same molecule?
A: Its AUC(0-t) is 11200 ng·h/mL.

Q: What about the AUC(0-t) (50 mg, read-out: AUC0-last, Median) of the same molecule?
A: The AUC(0-t) was 11200 ng·h/mL.

Q: And the AUC(0-inf) (50 mg, read-out: AUC0-∞, Geometric Mean)?
A: The AUC(0-inf) was 11200 ng·h/mL.

Q: And the AUC(0-inf) (50 mg, read-out: AUC0-∞, Mean)?
A: The AUC(0-inf) was 11300 ng·h/mL.

Q: And the AUC(0-inf) (50 mg, read-out: AUC0-∞, Median)?
A: Its AUC(0-inf) is 11200 ng·h/mL.

Q: What about the Cmax (50 mg, read-out: Cmax, Geometric Mean) of the same molecule?
A: The Cmax was 490 ng/mL.

Q: What about the Cmax (50 mg, read-out: Cmax, Mean) of the same molecule?
A: The Cmax was 500 ng/mL.

Q: What about the Cmax (50 mg, read-out: Cmax, Median) of the same molecule?
A: The Cmax was 470 ng/mL.

Q: And the half-life (50 mg, read-out: Half-Life Lambda Z, Geometric Mean (converted))?
A: Its half-life is 13.4 h.

Q: And the half-life (50 mg, read-out: Half-Life Lambda Z, Mean (converted))?
A: The half-life was 13.6 h.

Q: And the half-life (50 mg, read-out: Half-Life Lambda Z, Median (converted))?
A: Its half-life is 13.8 h.

Q: And the MRT (50 mg, read-out: Mean Residence Time, Geometric Mean)?
A: Its MRT is 20.8 h.

Q: What about the MRT (50 mg, read-out: Mean Residence Time, Mean) of the same molecule?
A: The MRT was 21 h.

Q: And the MRT (50 mg, read-out: Mean Residence Time, Median)?
A: The MRT was 21.5 h.

Q: What about the Tmax (50 mg, read-out: Tmax, Geometric Mean) of the same molecule?
A: The Tmax was 4.66 h.

Q: What about the Tmax (50 mg, read-out: Tmax, Mean) of the same molecule?
A: The Tmax was 4.69 h.

Q: What about the Tmax (50 mg, read-out: Tmax, Median) of the same molecule?
A: The Tmax was 5 h.

Q: And the Vd/F (50 mg, read-out: Vz/F, Geometric Mean)?
A: The Vd/F was 86.6 L.

— patent US20220265629A1, “TREATMENT OF SYSTOLIC DYSFUNCTION AND HEART FAILURE WITH REDUCED EJECTION FRACTION WITH THE COMPOUND (R)-4-(1-((3-(DIFLUOROMETHYL)-1-METHYL-1H-PYRAZOL-4-YL)SULFONYL)-1-FLUOROETHYL)-N-(ISOXAZOL-3-YL)PIPERIDINE-1-CARBOXAMIDE” (MyoKardia, Inc., priority 2019, published 2022)
